# According to the supplement of paper PMC13380429:
# Legend:
# Conditions in all cases: 72 h
# [1] = test system: Caco-2; assay: cell viability relative to DMSO; higher = less toxic
# [2] = test system: Calu-3; assay: as above
# [3] = test system: HepG2; assay: as above
# [4] = test system: U2OS; assay: as above
# [5] = test system: Vero E6; assay: as above
# [6] = test system: Caco-2; assay: relative viability EC50 (midpoint between 100% and the lowest measured viability); higher = less toxic
# [7] = test system: Calu-3; assay: as above
# [8] = test system: HepG2; assay: as above
# [9] = test system: U2OS; assay: as above
# [10] = test system: Vero E6; assay: as above
# [11] = test system: Caco-2; assay: drug sensitivity score (DSS) for viability; higher = more toxic; extreme values may be limits of the assay
# [12] = test system: Calu-3; assay: as above
# [13] = test system: HepG2; assay: as above
# [14] = test system: U2OS; assay: as above
# [15] = test system: Vero E6; assay: as above
Structure (SMILES),cell viability ([1]; 1 nM) [%],cell viability ([1]; 10 nM) [%],cell viability ([1]; 100 nM) [%],cell viability ([1]; 1000 nM) [%],cell viability ([1]; 10000 nM) [%],cell viability ([2]; 1 nM) [%],cell viability ([2]; 10 nM) [%],cell viability ([2]; 100 nM) [%],cell viability ([2]; 1000 nM) [%],cell viability ([2]; 10000 nM) [%],cell viability ([3]; 1 nM) [%],cell viability ([3]; 10 nM) [%],cell viability ([3]; 100 nM) [%],cell viability ([3]; 1000 nM) [%],cell viability ([3]; 10000 nM) [%],cell viability ([4]; 1 nM) [%],cell viability ([4]; 10 nM) [%],cell viability ([4]; 100 nM) [%],cell viability ([4]; 1000 nM) [%],cell viability ([4]; 10000 nM) [%],cell viability ([5]; 1 nM) [%],cell viability ([5]; 10 nM) [%],cell viability ([5]; 100 nM) [%],cell viability ([5]; 1000 nM) [%],cell viability ([5]; 10000 nM) [%],relative viability EC50 [6] [µM],relative viability EC50 [7] [µM],relative viability EC50 [8] [µM],relative viability EC50 [9] [µM],relative viability EC50 [10] [µM],drug sensitivity score [11],drug sensitivity score [12],drug sensitivity score [13],drug sensitivity score [14],drug sensitivity score [15]
O=C1c2cccc3c2[C@H](CCC3)CN1[C@@H]1CN2CCC1CC2 [palonosetron],105,97.5,90.8,96.8,102,106,99,91.3,100,98.8,94.4,90.2,88.6,96.1,88.9,98.9,97.5,99.5,100,94.2,99.7,103,103,99.3,82.4,> 10,> 10,> 10,> 10,> 10,0,0,0,0,0.5
NC(=O)NC(=O)Cc1ccccc1 [phenacemide],102,94.4,95.6,100,94.8,102,97.2,101,87.7,104,96.4,103,95.5,107,102,104,102,102,98.8,97.6,97.5,101,96.8,99.7,96.9,> 10,> 10,> 10,> 10,> 10,0,0,0,0,0
CCC(c1ccccc1)c1c(O)c2ccccc2oc1=O (stereo not given) [phenprocoumon],91.4,97.6,104,92.2,104,102,100,102,93.6,94.8,90.2,107,87.5,99.7,108,96.8,92.5,101,99.8,104,100,108,97.3,102,102,> 10,> 10,> 10,> 10,> 10,0,0,0,0,0
